# Experimental data published in US10800816B2 (Baxalta GmbH, priority 2012, dated 2020).
# Where a SMILES comes first, the peptide text is derived from it. Bridges are numbered along the chain shown (N, C = ends). [ ]: non-standard residue; d: D form. The star is where a group is joined. Succinimide(1-Et,3-yl) = CCN1C(=O)CC(*)C1=O; Tle = CC(C)(C)[C@H](N)C(=O)O; Hexanoyl = CCCCCC(=O)*; Aib = CC(C)(N)C(=O)O; Acm = CC(=O)NC*; Sar = CNCC(=O)O
# System: TFPI
# Test: IC50 ELISA | Mean IC50 [nM]
# Description: Table printed on a drawing sheet, FIGURE 78Z
# Head of the field: IC50 ELISA | Mean IC50 [nM]
# First copying reader's note: Continued table: the first body row (45.67) belongs to a compound on the preceding sheet, the last row probably continues on the next sheet, and cells with several values list single replicates.
row,Compound,IC50 [nM]
1,"CCCCCC(=O)N[C@@H](Cc1ccccc1)C(=O)N[C@@H](CCC(N)=O)C(=O)N[C@@H](CO)C(=O)N[C@@H](CCCCN)C(=O)N1CCC[C@@H]1C(=O)N[C@@H](CSCNC(C)=O)C(=O)N[C@H](C(=O)N[C@@H](Cc1c[nH]cn1)C(=O)N[C@H](C(=O)N[C@@H](CC(=O)O)C(=O)N[C@H](C)C(=O)N[C@@H](Cc1ccc(O)cc1)C(=O)N[C@@H](Cc1ccccc1)C(=O)N[C@@H](CCC(=O)O)C(=O)N[C@@H](CCCNC(=N)N)C(=O)N[C@@H](CC(C)C)C(=O)NC(C)(C)C(=O)N[C@@H](C)C(=O)N[C@@H](CCCCN)C(=O)N[C@@H](CC(C)C)C(=O)N[C@@H](CSC1CC(=O)N(CC)C1=O)C(N)=O)C(C)(C)C)C(C)C (stereo partly shown) [JBT00002537, Hex-FQSKp-Cys(Acm)-VH-Tle-DaYFERL-Aib-AKLC(NEM)- NH2] (Hexanoyl-FQSK[dP]C(Acm)VH[Tle]D[dA]YFERL[Aib]AKLC(Succinimide(1-Et,3-yl))-NH2)",7.13

# System: not listed separately
# Test: FIGURE 78M
row,Compound,24 h Human Plasma Stability | Mean Remaining [%]
1,"CC[C@H](NC(=O)[C@H](Cc1c[nH]cn1)NC(=O)[C@@H](NC(=O)[C@H](CC(N)=O)NC(=O)[C@H]1CCCN1C(=O)[C@H](CCCCN)NC(=O)[C@H](CO)NC(=O)[C@H](CCC(N)=O)NC(=O)[C@H](Cc1ccccc1)NC(C)=O)C(C)C)C(=O)N[C@@H](CC(=O)O)C(=O)NCC(=O)N[C@@H](Cc1ccc(O)cc1)C(=O)N[C@@H](Cc1ccccc1)C(=O)N[C@@H](CCC(=O)O)C(=O)N[C@@H](CCCNC(=N)N)C(=O)N[C@@H](CC(C)C)C(=O)NC(C)(C)C(=O)N[C@@H](C)C(=O)N[C@@H](CCCCN)C(=O)N[C@@H](CC(C)C)C(=O)N[C@@H](CSC1CC(=O)N(CC)C1=O)C(N)=O (stereo partly shown) [JBT00002381, Ac-FQSKpNVH-Abu-DGYFERL-Aib-AKLC(NEM)-NH2]",17.30
2,"CCN1C(=O)CC(SC[C@H](NC(=O)[C@H](CC(C)C)NC(=O)[C@H](CCCCN)NC(=O)[C@H](C)NC(=O)C(C)(C)NC(=O)[C@H](CC(C)C)NC(=O)[C@H](CCCNC(=N)N)NC(=O)[C@H](CCC(=O)O)NC(=O)[C@H](Cc2ccccc2)NC(=O)[C@H](Cc2ccc(O)cc2)NC(=O)CNC(=O)[C@H](CC(=O)O)NC(=O)C(C)(C)NC(=O)[C@H](Cc2c[nH]cn2)NC(=O)[C@@H](NC(=O)[C@H](CC(N)=O)NC(=O)[C@H]2CCCN2C(=O)[C@H](CCCCN)NC(=O)[C@H](CO)NC(=O)[C@H](CCC(N)=O)NC(=O)[C@H](Cc2ccccc2)NC(C)=O)C(C)C)C(N)=O)C1=O (stereo partly shown) [JBT00002385, Ac-FQSKpNVH-Aib-DGYFERL-Aib-AKLC(NEM)-NH2]",51.50
3,CC(=O)N[C@@H](Cc1ccccc1)C(=O)N[C@@H](CCC(N)=O)C(=O)N[C@@H](CO)C(=O)N[C@@H](CCCCN)C(=O)N1CCC[C@@H]1C(=O)N[C@@H](CC(N)=O)C(=O)N[C@H](C(=O)N[C@@H](Cc1c[nH]cn1)C(=O)N[C@H](C(=O)N[C@@H](CS)C(=O)NCC(=O)N[C@@H](Cc1ccc(O)cc1)C(=O)N[C@@H](Cc1ccccc1)C(=O)N[C@@H](CCC(=O)O)C(=O)N[C@@H](CCCNC(=N)N)C(=O)N[C@@H](CC(C)C)C(=O)NC(C)(C)C(=O)N[C@@H](C)C(=O)N[C@@H](CCCCN)C(=O)N[C@@H](CC(C)C)C(N)=O)C(C)C)C(C)C [JBT00002371],31.20
4,"CCN1C(=O)CC(SC[C@H](NC(=O)[C@H](CC(C)C)NC(=O)[C@H](CCCCN)NC(=O)[C@H](C)NC(=O)C(C)(C)NC(=O)[C@H](CC(C)C)NC(=O)[C@H](CCCNC(=N)N)NC(=O)[C@H](CCC(=O)O)NC(=O)[C@H](Cc2ccccc2)NC(=O)[C@H](Cc2ccc(O)cc2)NC(=O)CNC(=O)[C@H](CC(=O)O)NC(=O)[C@H](CC(F)(F)F)NC(=O)[C@H](Cc2c[nH]cn2)NC(=O)[C@@H](NC(=O)[C@H](CC(N)=O)NC(=O)[C@H]2CCCN2C(=O)[C@H](CCCCN)NC(=O)[C@H](CO)NC(=O)[C@H](CCC(N)=O)NC(=O)[C@H](Cc2ccccc2)NC(C)=O)C(C)C)C(N)=O)C1=O (stereo partly drawn) [JBT00002382, Ac-FQSKpNVH-(L-2-Amino-4,4,4-trifluorobutyric acid)- DGYFERL-Aib-AKLC(NEM)-NH2]",20.50
5,"CCN1C(=O)CC(SC[C@H](NC(=O)[C@H](CC(C)C)NC(=O)[C@H](CCCCN)NC(=O)[C@H](C)NC(=O)C(C)(C)NC(=O)[C@H](CC(C)C)NC(=O)[C@H](CCCNC(=N)N)NC(=O)[C@H](CCC(=O)O)NC(=O)[C@H](Cc2ccccc2)NC(=O)[C@H](Cc2ccc(O)cc2)NC(=O)CNC(=O)[C@H](CC(=O)O)NC(=O)[C@@H](NC(=O)[C@H](Cc2c[nH]cn2)NC(=O)[C@@H](NC(=O)[C@H](CC(N)=O)NC(=O)[C@H]2CCCN2C(=O)[C@H](CCCCN)NC(=O)[C@H](CO)NC(=O)[C@H](CCC(N)=O)NC(=O)[C@H](Cc2ccccc2)NC(C)=O)C(C)C)C2CCCC2)C(N)=O)C1=O (stereo partly shown) [JBT00002383, Ac-FQSKpNVH-Cpg-DGYFERL-Aib-AKLC(NEM)-NH2]",31.00

# System: not listed separately
# Test: FIGURE 78Z
Compound,24 h Human Plasma Stability | Mean Remaining [%],24 h Mouse Plasma Stability | Mean Remaining [%]
Hex-FQSKp-Cys(Acm)-VH-Tle-DaYFERL-Aib-AKLC(ME- 400MA)-NH2 [JBT00002534],59.83,69.87
"CCCCCC(=O)N[C@@H](Cc1ccccc1)C(=O)N[C@@H](CCC(N)=O)C(=O)N[C@@H](CO)C(=O)N[C@@H](CCCCN)C(=O)N1CCC[C@@H]1C(=O)N[C@@H](CSCNC(C)=O)C(=O)N[C@H](C(=O)N[C@@H](Cc1c[nH]cn1)C(=O)N[C@H](C(=O)N[C@@H](CC(=O)O)C(=O)N[C@H](C)C(=O)N[C@@H](Cc1ccc(O)cc1)C(=O)N[C@@H](Cc1ccccc1)C(=O)N[C@@H](CCC(=O)O)C(=O)N[C@@H](CCCNC(=N)N)C(=O)N[C@@H](CC(C)C)C(=O)NC(C)(C)C(=O)N[C@@H](C)C(=O)N[C@@H](CCCCN)C(=O)N[C@@H](CC(C)C)C(=O)N[C@@H](CSC1CC(=O)N(CC)C1=O)C(N)=O)C(C)(C)C)C(C)C (stereo partly shown) [JBT00002537, Hex-FQSKp-Cys(Acm)-VH-Tle-DaYFERL-Aib-AKLC(NEM)- NH2] (Hexanoyl-FQSK[dP]C(Acm)VH[Tle]D[dA]YFERL[Aib]AKLC(Succinimide(1-Et,3-yl))-NH2)",106.65,–
(Hex-FQSKp-Cys(Acm)-VH-Tle-DaYFERL-Aib-AKLC- NH2)2-M2TriO [JBT00002533],185.13,52.65

# System: TFPI
# Test: Extrinsic Tenase Inhibition assay | % Inhibition @ 2.5μM
row,Compound,Extrinsic Tenase Inhibition assay | % Inhibition @ […] [%]
1,Ac-FQSKpNVFVFGYFERLRAKL-NH2 (SEQ ID NO: 129) (Ac-FQSK[dP]NVFVFGYFERLRAKL-NH2; SMILES CC(=O)N[C@@H](Cc1ccccc1)C(=O)N[C@@H](CCC(N)=O)C(=O)N[C@@H](CO)C(=O)N[C@@H](CCCCN)C(=O)N1CCC[C@@H]1C(=O)N[C@@H](CC(N)=O)C(=O)N[C@H](C(=O)N[C@@H](Cc1ccccc1)C(=O)N[C@H](C(=O)N[C@@H](Cc1ccccc1)C(=O)NCC(=O)N[C@@H](Cc1ccc(O)cc1)C(=O)N[C@@H](Cc1ccccc1)C(=O)N[C@@H](CCC(=O)O)C(=O)N[C@@H](CCCNC(=N)N)C(=O)N[C@@H](CC(C)C)C(=O)N[C@@H](CCCNC(=N)N)C(=O)N[C@@H](C)C(=O)N[C@@H](CCCCN)C(=O)N[C@@H](CC(C)C)C(N)=O)C(C)C)C(C)C) [JBT1162],51
2,Ac-FQSKKNVFFFGYFERLRAKL-NH2 (SEQ ID NO: 735) [JBT1152],0
3,Ac-[CFQSKGNVFVDGYFERLC]AKL-NH2 (SEQ ID NO: 402) (Ac-CFQSKGNVFVDGYFERLCAKL-NH2; disulfide 1-18) [JBT1592],11
4,Ac-FQSKKNVFVFGYFERLRAKD-NH2 (SEQ ID NO: 937) [JBT1151],0
5,Ac-FQSK-Nmg-NVFVAGYFERLRAKL-NH2 (SEQ ID NO: 161) (Ac-FQSK[Sar]NVFVAGYFERLRAKL-NH2; SMILES CC(=O)N[C@@H](Cc1ccccc1)C(=O)N[C@@H](CCC(N)=O)C(=O)N[C@@H](CO)C(=O)N[C@@H](CCCCN)C(=O)N(C)CC(=O)N[C@@H](CC(N)=O)C(=O)N[C@H](C(=O)N[C@@H](Cc1ccccc1)C(=O)N[C@H](C(=O)N[C@@H](C)C(=O)NCC(=O)N[C@@H](Cc1ccc(O)cc1)C(=O)N[C@@H](Cc1ccccc1)C(=O)N[C@@H](CCC(=O)O)C(=O)N[C@@H](CCCNC(=N)N)C(=O)N[C@@H](CC(C)C)C(=O)N[C@@H](CCCNC(=N)N)C(=O)N[C@@H](C)C(=O)N[C@@H](CCCCN)C(=O)N[C@@H](CC(C)C)C(N)=O)C(C)C)C(C)C) [JBT1396],34
6,Ac-FQSKGNVFvFGYFERLRAKL-NH2 (SEQ ID NO: 936) (Ac-FQSKGNVF[dV]FGYFERLRAKL-NH2; SMILES CC(=O)N[C@@H](Cc1ccccc1)C(=O)N[C@@H](CCC(N)=O)C(=O)N[C@@H](CO)C(=O)N[C@@H](CCCCN)C(=O)NCC(=O)N[C@@H](CC(N)=O)C(=O)N[C@H](C(=O)N[C@@H](Cc1ccccc1)C(=O)N[C@@H](C(=O)N[C@@H](Cc1ccccc1)C(=O)NCC(=O)N[C@@H](Cc1ccc(O)cc1)C(=O)N[C@@H](Cc1ccccc1)C(=O)N[C@@H](CCC(=O)O)C(=O)N[C@@H](CCCNC(=N)N)C(=O)N[C@@H](CC(C)C)C(=O)N[C@@H](CCCNC(=N)N)C(=O)N[C@@H](C)C(=O)N[C@@H](CCCCN)C(=O)N[C@@H](CC(C)C)C(N)=O)C(C)C)C(C)C) [JBT1149],0
7,Ac-FQSK-Nmg-NVFVTGYFERL-Aib-AKL-NH2 (SEQ ID NO: 165) (Ac-FQSK[Sar]NVFVTGYFERL[Aib]AKL-NH2; SMILES CC(=O)N[C@@H](Cc1ccccc1)C(=O)N[C@@H](CCC(N)=O)C(=O)N[C@@H](CO)C(=O)N[C@@H](CCCCN)C(=O)N(C)CC(=O)N[C@@H](CC(N)=O)C(=O)N[C@H](C(=O)N[C@@H](Cc1ccccc1)C(=O)N[C@H](C(=O)N[C@H](C(=O)NCC(=O)N[C@@H](Cc1ccc(O)cc1)C(=O)N[C@@H](Cc1ccccc1)C(=O)N[C@@H](CCC(=O)O)C(=O)N[C@@H](CCCNC(=N)N)C(=O)N[C@@H](CC(C)C)C(=O)NC(C)(C)C(=O)N[C@@H](C)C(=O)N[C@@H](CCCCN)C(=O)N[C@@H](CC(C)C)C(N)=O)[C@@H](C)O)C(C)C)C(C)C) [JBT1585],48
8,Ac-FQSK-Nmg-NVFVTGYFERLRAKL-NH2 (SEQ ID NO: 125) (Ac-FQSK[Sar]NVFVTGYFERLRAKL-NH2; SMILES CC(=O)N[C@@H](Cc1ccccc1)C(=O)N[C@@H](CCC(N)=O)C(=O)N[C@@H](CO)C(=O)N[C@@H](CCCCN)C(=O)N(C)CC(=O)N[C@@H](CC(N)=O)C(=O)N[C@H](C(=O)N[C@@H](Cc1ccccc1)C(=O)N[C@H](C(=O)N[C@H](C(=O)NCC(=O)N[C@@H](Cc1ccc(O)cc1)C(=O)N[C@@H](Cc1ccccc1)C(=O)N[C@@H](CCC(=O)O)C(=O)N[C@@H](CCCNC(=N)N)C(=O)N[C@@H](CC(C)C)C(=O)N[C@@H](CCCNC(=N)N)C(=O)N[C@@H](C)C(=O)N[C@@H](CCCCN)C(=O)N[C@@H](CC(C)C)C(N)=O)[C@@H](C)O)C(C)C)C(C)C) [JBT1155],32
